Data from patent US8853259B2, “Metformin derivatives for treating diabetes and diabetes complications” (priority 2013, dated 2014).

Assay: Hygroscopicity of the isolated solid on exposure to air
Format: physicochemical
Details: light yellow foamy solid from Method 1; turns into gummy residue on exposure to air
Method: Method 1: Metformin free base (1.29 g, 0.010 mol) was taken in methanol (15 mL) and while stirring L-Glutamic acid (0.74 g, […]) was added as solid. Lipoic acid (1.03 g, […]) was separately dissolved in methanol (15 mL) and added to this mixture through a in-line syringe filter (to remove polymeric material, if any). The mixture was continued to stir for 30 min. […] Metformin.L-Glutamic acid.R-Lipoic acid salt (2.9 g) was obtained as light yellow foamy solid. […] The residue was suspended in acetonitrile (30 mL) and stirred for 18 h. Filtered the pale yellow solid and dried in vacuum for 16 h to get 2.32 g of 3. ^1H NMR (200 MHz, D2O) δ 1.15-2.1 (10H, m), δ 2.1-2.42 (5H, m), δ2.88 (12H, s), δ 2.95-3.12 (1H, m) δ 3.48-3.62 (2H, m); ^13C NMR (200 MHz, D2O) δc 25.86, 27.25, 28.68, 33.81, 34.14, 37.66, 38.34, 40.51, 54.95, 56.93, 158.63, 160.28, 174.80, 181.44, 183.81.

With “metformin-L-glutamic acid-R (+) lipoic acid salt” the hygroscopicity was “high hygroscopic”.
